Experimental data: patent publication US11746383B2, “Biomarker DLEC1 for cancer” (The Chinese University of Hong Kong, priority 2018, dated 2023)

Assays:
[1] = tested on: KYSE150, H1299 and HONE1 cells; assay: Cell cycle analysis by flow cytometry (propidium iodide); format: cell-based, human; conditions: DLEC1-expressing KYSE150, H1299 and HONE1 cells
Description: (§1) Flow cytometry analysis of cell cycle and apoptosis was described previously. Cells were stained with propidium iodide (PI) and Annexin V-FITC (BD Biosciences, Bedford, Mass.), and sorted by Accuri C6 (BD Biosciences, Bedford, Mass.) according to the manufacturer's protocol.

JAK2 = target: T1, JAK2 (Homo sapiens, UniProt O60674); assay: Co-immunoprecipitation with JAK2; format: binding
T1 construct: endogenous in cells; host or cells: HEK293T
Method: (§2) Human IL-6 (PF01229) (Peprotech, Rocky Hill, N.J.) was used. Western blot and IP experiments were performed according to previous protocols.

[2] = tested on: multiple carcinoma cells stably-expressing DLEC1; assay: Cell proliferation (MTT) assay; format: cell-based, human
Method: (§3) Four pairs of primers (Table 6) were used to generate 4 DLEC1 fragments based on published DLEC1 sequence (GenBank accession number AB020522). Reverse transcription was carried out using normal testis RNA as template (BD Biosciences, Palo Alto, Calif.). The 4 product fragments were ligated to generate pcDNA3.1(+)-Flag-DLEC1 and pCMV-Flag-DLEC1-V5 expression plasmids. The mutation for three YXXQ motifs of DLEC1 (DLEC1-3Y, YXXQ-GGGG (“GGGG” disclosed as SEQ ID NO: 7)) was introduced by PCR into pCMV-Flag-DLEC1-V5 vector, with sequence confirmed. STAT3C expression plasmid was a gift from Prof. Honglin Chen (University of Hong Kong). Cells were transfected with lipofectamine 3000 (Invitrogen, Carlsbad, Calif.), and the cells were cultured in RPMI 1640 supplemented with 10% FBS and selected in 400 μg/mL of G418 for 20-30 days to establish some stable cell pools, with confirmed DLEC1 expression.
(§4) Colony formation assay was conducted as previously described. All experiments were performed in triplicate wells 3 times. To monitor cell proliferation, 1000 cells were plated in a 96-well plate and incubated at 37° C. in selective media for 3-(4,5-dimethylthiazolyl-2)-2,5-diphenyltetrazolium bromide (MTT) assay.

carcinoma cells [3] = assay: Scratch wound-healing assay; format: cell-based, human; conditions: confluent monolayer, versus mock cells
Method: Cell motility was assessed using a scratch wound-healing assay. Cells transient transfected with DLEC1 were cultured in 6-well plates until confluent. A single scratch was produced in the cell layer using a sterile tip. After incubation for 24 and 48 hours, cells were photographed under a phase contrast microscope. The experiments were performed in triplicates.

STAT3 = target: T2, STAT3 (Homo sapiens, UniProt P40763); assay: Co-immunoprecipitation with STAT3; format: binding
T2 construct: Association of endogenous DLEC1 and STAT3 proteins in HEK293T cells; endogenous in cells; host or cells: HEK293T
Method: as §2

carcinoma cells [4] = assay: Cell apoptosis assay (Annexin V-FITC/PI flow cytometry, Western blot of apoptosis markers); format: cell-based, human
Method: as §1, §2

[5] = tested on: ESCC, lung and NPC carcinoma cells; assay: Transwell migration and Matrigel invasion assays; format: cell-based, human; conditions: transwell assay, ectopic expression of DLEC1
Method: Transwell migration and invasion assays were performed as previously described. The numbers of migrated or invaded cells were observed and counted using a light microscope. Five fields were randomly chosen and the numbers of penetrated cells were counted.

carcinoma cells [6] = assay: EMT, actin stress fiber and stemness marker analysis (immunofluorescence, Western blot, qPCR); format: cell-based, human
Method: RNA was reverse-transcribed using MuLV reverse transcriptase (GeneAmp RNA PCR kit, Applied Biosystems). RT-PCR was performed as described previously using GAPDH as a control.
Cells grown on coverslips were stained by indirect immunofluorescence as described previously. Briefly, cells were incubated with primary antibodies against DLEC1, E-cadherin, or Vimentin and then incubated with Alexa Fluor 594-conjugated secondary antibody against mouse IgG (A11062) (Invitrogen Molecular Probes, Carlsbad, Calif.), or FITC-conjugated secondary antibody against rabbit IgG (F0205) (DAKO, Denmark). To analyze the effects of DLEC1 on actin stress fiber formation, cells were serum starved for 24 h before incubation in medium-containing 5% fetal bovine serum. After 1 h, cells were fixed and stained by Rhodamine-labeled phalloidin (Invitrogen Molecular Probes). Cells were then counterstained with DAPI and imaged with an Olympus BX51 microscope (Olympus Corporation, Tokyo, Japan).

[7] = tested on: p-ERK, p-AKT, p-STAT3, active β-catenin; assay: Western blot of signaling protein phosphorylation; format: cell-based, human
Method: as §2

[8] = tested on: NF-κB, AP-1, STATs-bs, TopFlash, SRE and PAI-1 reporters; assay: Dual-luciferase reporter assay of signaling pathways; format: cell-based, human; conditions: carcinoma cells (ESCC, lung, NPC) or immortalized normal epithelial cells (NP69)
Method: The promoter activities were determined by luciferase reporter assays. Luciferase reporters of several key signaling pathways, including NF-κB-luc, AP-1-luc, SRE-luc, STATs-bs-luc, TopFlash-luc, and PAI-luc were used to examine signaling pathway regulated by DLEC1 Cells were transiently co-transfected with DLEC1 expression vector and phRL-TK […]. […] After 48 h, cells were lysed and luciferase activities were measured using Dual-Luciferase® Reporter Assay System (Promega, Madison, Wis.). To normalize transfection efficiency, phRL-TK luciferase activities were measured as an internal control. At least three independent experiments were performed, with each repeated in triplicates.

[9] = tested on: ESCC, lung and NPC carcinoma cells; assay: Monolayer colony formation assay; format: cell-based, human; conditions: ectopically expressed DLEC1 in ESCC
Method: as §3, §4

[10] = tested on: DLEC1 expression in ESCC, lung and NPC carcinoma cell lines; assay: Demethylation treatment (Aza, TSA) and DLEC1 expression / promoter methylation analysis (RT-PCR, MSP, BGS); format: cell-based, human
Description: A panel of ESCC, NPC and lung carcinoma cell lines was used. Immortalized normal esophageal epithelial (NE1, NE3, Het-1A), normal nasopharyngeal epithelial (NP69) and HEK293T cell lines were used. Cell lines were maintained in RPMI or DMEM medium (Gibco BRL, Rockville, Md.) with 10% fetal bovine serum. Human normal adult tissue RNA samples were obtained commercially (Stratagene, La Jolla, Calif., or Millipore Chemicon, Billerica, Mass.). Primary carcinoma tissues of Chinese ESCC, NPC and lung, some with matched normal samples, have been descried before. Cell lines were treated with 5 μM of 5-Aza-2′-deoxycytidine (Aza) (Sigma, St. Louis, Mo.) for 3 days, or even followed with ˜16 h additional TSA (final concentration […]) treatment as described. MSP and BGS were conducted according to previous reports. MSP was conducted for 40 cycles at the annealing temperatures of 60° C. for M and 58° C. for U. Amplified products from BGS primer set were cloned into pCR4-Topo vector (Invitrogen, Carlsbad, Calif.), with 6-8 colonies randomly chosen and sequenced. RNA was reverse-transcribed using MuLV reverse transcriptase (GeneAmp RNA PCR kit, Applied Biosystems). RT-PCR was performed as described previously using GAPDH as a control.

DLEC1 CGI = assay: ChIP assay, acetylated histone H4; format: cell-based, human; conditions: carcinoma cells following TSA treatment
Method: ChIP assay was performed as described previously. Antibody to acetylated histone H4 (Upstate Biotechnology) was used to precipitate cross-linked chromatin. ACTIN was employed as a control for normalization of each PCR product.

T1 sequence (O60674 whole entry): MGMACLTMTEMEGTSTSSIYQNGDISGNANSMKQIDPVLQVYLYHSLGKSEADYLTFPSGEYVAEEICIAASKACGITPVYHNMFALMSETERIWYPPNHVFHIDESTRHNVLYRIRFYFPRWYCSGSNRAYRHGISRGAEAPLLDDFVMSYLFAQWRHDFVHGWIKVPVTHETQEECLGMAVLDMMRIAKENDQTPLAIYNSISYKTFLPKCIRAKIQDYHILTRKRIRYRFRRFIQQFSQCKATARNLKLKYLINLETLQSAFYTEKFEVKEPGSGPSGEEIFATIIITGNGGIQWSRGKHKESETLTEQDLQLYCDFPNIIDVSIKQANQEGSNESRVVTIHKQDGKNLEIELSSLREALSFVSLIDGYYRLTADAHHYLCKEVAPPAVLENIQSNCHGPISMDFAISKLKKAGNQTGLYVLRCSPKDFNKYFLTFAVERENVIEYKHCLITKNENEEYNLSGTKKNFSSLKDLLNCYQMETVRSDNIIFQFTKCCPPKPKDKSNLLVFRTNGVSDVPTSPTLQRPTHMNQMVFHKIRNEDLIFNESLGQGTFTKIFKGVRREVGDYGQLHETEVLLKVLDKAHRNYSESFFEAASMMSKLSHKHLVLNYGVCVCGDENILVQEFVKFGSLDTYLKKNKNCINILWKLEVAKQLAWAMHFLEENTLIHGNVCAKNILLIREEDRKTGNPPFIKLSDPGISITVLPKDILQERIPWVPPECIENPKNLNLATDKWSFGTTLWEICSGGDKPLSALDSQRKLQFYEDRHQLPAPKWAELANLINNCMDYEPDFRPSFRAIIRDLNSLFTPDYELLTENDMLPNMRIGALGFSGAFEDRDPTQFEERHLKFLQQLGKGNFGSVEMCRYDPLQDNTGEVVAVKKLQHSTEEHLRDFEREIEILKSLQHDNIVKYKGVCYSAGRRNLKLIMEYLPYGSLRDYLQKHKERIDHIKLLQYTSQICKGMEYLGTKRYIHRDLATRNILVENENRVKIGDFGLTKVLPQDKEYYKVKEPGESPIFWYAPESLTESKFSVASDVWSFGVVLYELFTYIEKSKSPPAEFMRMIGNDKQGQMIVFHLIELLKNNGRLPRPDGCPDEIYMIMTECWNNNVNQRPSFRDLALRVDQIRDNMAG
T2 sequence (P40763 whole entry): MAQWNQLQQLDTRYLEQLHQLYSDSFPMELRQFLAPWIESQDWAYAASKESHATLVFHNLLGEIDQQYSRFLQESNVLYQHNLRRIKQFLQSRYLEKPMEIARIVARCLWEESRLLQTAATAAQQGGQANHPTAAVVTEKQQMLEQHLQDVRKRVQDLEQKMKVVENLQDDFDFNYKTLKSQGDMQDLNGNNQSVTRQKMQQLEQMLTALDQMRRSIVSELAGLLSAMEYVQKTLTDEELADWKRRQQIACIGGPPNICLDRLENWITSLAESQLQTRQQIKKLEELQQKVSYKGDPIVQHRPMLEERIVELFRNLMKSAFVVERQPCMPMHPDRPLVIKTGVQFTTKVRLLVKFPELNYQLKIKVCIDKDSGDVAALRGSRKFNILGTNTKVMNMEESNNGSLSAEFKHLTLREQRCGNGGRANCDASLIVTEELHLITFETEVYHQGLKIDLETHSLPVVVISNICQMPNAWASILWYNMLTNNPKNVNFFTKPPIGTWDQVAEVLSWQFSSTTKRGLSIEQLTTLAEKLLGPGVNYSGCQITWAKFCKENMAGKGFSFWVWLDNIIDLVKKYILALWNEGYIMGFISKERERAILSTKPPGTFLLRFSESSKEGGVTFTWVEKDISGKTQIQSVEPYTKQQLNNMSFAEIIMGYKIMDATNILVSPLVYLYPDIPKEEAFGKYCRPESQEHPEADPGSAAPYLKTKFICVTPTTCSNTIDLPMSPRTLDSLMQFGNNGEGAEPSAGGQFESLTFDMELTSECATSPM

In the case of “DLEC1: 1755-amino acid human DLEC1 protein (SEQ ID NO:4), ectopically expressed from pcDNA3.1(+)-Flag-DLEC1 / pCMV-Flag-DLEC1-V5 plasmids”, the cell cycle distribution [1] is reported as “increased G2-M phase cells and decreased S phase cells”, the “interaction of STAT3 with JAK2” value (JAK2; IL-6 dependent manner) is reported as “inhibited” and the “interaction with JAK2 and p-STAT3 (Tyr705)” value (JAK2; IL-6 stimulation) is reported as “decreasing”. For the same compound, the “co-precipitation of JAK2” value (JAK2; endogenous proteins, HEK293T cells) was “relatively weaker co-precipitation”, the growth rates [2] was “slower growth rates” and the “closing of artificial wounds” value (carcinoma cells [3]) was “less proficiency in closing artificial wounds than mock cells”. The “interaction of DLEC1 with STAT3” value (STAT3; IL-6 stimulation) was “increased”, the “interaction with STAT3/p-STAT3 (Tyr705)” value (STAT3; endogenous proteins, HEK293T cells, immunoprecipitation) was “strong interaction” and the “apoptosis markers (cleaved caspase-3 and PARP)” value (carcinoma cells [4]; Western blot) was “increase”. For the same compound, the apoptotic cells (carcinoma cells [4]; after transfection with DLEC1-expression vector) was “significantly increased”, the cell invasion [5] was “dramatically suppressed” and the cell migration [5] was “dramatically suppressed”. The “stem cell markers (STAT3, CD44, ABCG2, TWIST and KLF4)” value (carcinoma cells [6]; ESCC and lung carcinoma cells, qPCR) was “downregulated”, the “E-cadherin, vimentin and metastasis markers (MMP7, Twist)” value (carcinoma cells [6]; Western blot) was “Upregulated E-cadherin and downregulated vimentin and metastasis markers (MMP7, Twist)” and the “formation of actin stress fibers” value (carcinoma cells [6]; carcinoma cells) was “disassembled”. The “EMT markers E-cadherin and vimentin” value (carcinoma cells [6]; immunofluorescence) was “gain of epithelial marker E-cadherin and loss of mesenchymal marker vimentin”, the “levels of p-ERK (Thr202/Tyr204), p-AKT (Ser473), p-STAT3 (Tyr705 and Ser727) and active β-catenin” value ([7]; DLEC1-expressing carcinoma cells) was “significantly decreased” and the “IL-6 treatment-enhanced STAT3 phosphorylation levels” value ([7]; IL-6 10 ng/mL for 30 min, KYSE150 and H1299 cells) was “suppress”. For the same compound, the “p-STAT3 levels at both Tyr705 and Ser727 sites” value ([7]; STAT3C-transfected carcinoma cells) was “greatly suppressed”, the “p-STAT3 (Tyr705)” value ([7]; increasing doses of DLEC1-expressing plasmids, dose-dependent) was “Marked decrease” and the “reporter activities of NF-κB, AP-1, STATs-bs, TopFlash, SRE and PAI-1 elements-regulated promoters” value [8] was “markedly repressed”. The “colony numbers and sizes compared to controls” value [9] was 10-40%.
For `Nc1ncn([C@H]2C[C@H](O)[C@@H](CO)O2)c(=O)n1` [Aza, 5-aza-2′-deoxycytidine], the “Expression of DLEC1” value ([10]; NPC cells) was “restored or increased” and the DLEC1 expression ([10]; cell lines of ESCC, lung and NPC with silenced DLEC1, 5 μM Aza for 3 days, or followed with ~16 h TSA) was “increased”.
For `CC(/C=C/C(=O)NO)=C\[C@@H](C)C(=O)c1ccc(N(C)C)cc1` [TSA, Trichostatin A], the “binding of acetylated histone 4 to the DLEC1 CGI” value (DLEC1 CGI) was “increased” and the DLEC1 expression ([10]; TSA-treated lung carcinoma cell line H1299) was “moderately induced”.
